Experimental data: patent publication US20260297081A1, “COMPOUNDS AND METHODS OF TREATING CANCERS” (Cullgen Inc., priority 2023, published 2026)

Columns and labels:
Type in all cases: cell-based
Calu-1 cells = experiment: Anti-proliferation (viability) of NSCLC Calu-1 cells, 3 days (Table 7, FIG. 2B); details: Homo sapiens, 72 h; Calu-1 cells, 3 days, 10-point serial dilution; read-out: GI IC50 in Calu-1
Outline: (§1)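 Seed cells, add compound in ten serially diluted concentrations, then incubate (Calu-1: 3 days; T47D: 6 days) before measuring viability.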

T47D cells = experiment: Anti-proliferation (viability) of ER+ breast cancer T47D cells, 6 days (Table 7, FIG. 2B); details: Homo sapiens, 144 h; T47D cells, 6 days, 10-point serial dilution; read-out: GI IC50 in T47D
Outline: as §1

MCF7 cells = experiment: Anti-proliferation (viability) of MCF7 cells (Table 7, FIG. 2B); details: Homo sapiens, MCF7, MCF7 cells, 3-6 days, 10-point serial dilution; read-out: GI IC50 in MCF-7
CDK4 = CDK4 (Homo sapiens, UniProt P11802+Q16531); experiment: CDK4 percentage degradation in Calu-1 cells (Table 6); set-up: Cells that express cyclin D1-3 and CDK4/6 proteins were treated with heterobifunctional compounds; endogenous in cells; host or cells: Calu-1; details: 16 hours; for inhibition at 0.04 µM: 40 nM; for inhibition at 0.2 µM: 200 nM
CDK4, sequence (P11802 2-303 limits assumed): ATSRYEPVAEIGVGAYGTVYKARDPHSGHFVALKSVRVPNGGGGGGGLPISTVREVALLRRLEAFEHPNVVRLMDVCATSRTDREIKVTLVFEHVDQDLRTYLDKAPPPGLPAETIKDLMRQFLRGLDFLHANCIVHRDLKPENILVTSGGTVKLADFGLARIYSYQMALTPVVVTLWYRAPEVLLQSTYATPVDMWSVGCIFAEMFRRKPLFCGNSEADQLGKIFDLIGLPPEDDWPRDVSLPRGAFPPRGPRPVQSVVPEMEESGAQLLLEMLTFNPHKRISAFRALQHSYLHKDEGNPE
CDK4, sequence (P24385 whole entry partner): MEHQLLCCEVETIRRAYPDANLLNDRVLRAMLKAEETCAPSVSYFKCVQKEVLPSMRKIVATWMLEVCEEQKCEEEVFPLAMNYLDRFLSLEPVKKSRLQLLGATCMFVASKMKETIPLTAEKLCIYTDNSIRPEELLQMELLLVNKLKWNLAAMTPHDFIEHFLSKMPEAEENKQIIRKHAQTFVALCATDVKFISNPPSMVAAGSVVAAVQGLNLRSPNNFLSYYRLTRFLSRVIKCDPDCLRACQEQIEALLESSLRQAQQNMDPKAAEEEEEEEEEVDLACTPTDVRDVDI
CDK4, sequence (Q16531 2-1140 limits assumed): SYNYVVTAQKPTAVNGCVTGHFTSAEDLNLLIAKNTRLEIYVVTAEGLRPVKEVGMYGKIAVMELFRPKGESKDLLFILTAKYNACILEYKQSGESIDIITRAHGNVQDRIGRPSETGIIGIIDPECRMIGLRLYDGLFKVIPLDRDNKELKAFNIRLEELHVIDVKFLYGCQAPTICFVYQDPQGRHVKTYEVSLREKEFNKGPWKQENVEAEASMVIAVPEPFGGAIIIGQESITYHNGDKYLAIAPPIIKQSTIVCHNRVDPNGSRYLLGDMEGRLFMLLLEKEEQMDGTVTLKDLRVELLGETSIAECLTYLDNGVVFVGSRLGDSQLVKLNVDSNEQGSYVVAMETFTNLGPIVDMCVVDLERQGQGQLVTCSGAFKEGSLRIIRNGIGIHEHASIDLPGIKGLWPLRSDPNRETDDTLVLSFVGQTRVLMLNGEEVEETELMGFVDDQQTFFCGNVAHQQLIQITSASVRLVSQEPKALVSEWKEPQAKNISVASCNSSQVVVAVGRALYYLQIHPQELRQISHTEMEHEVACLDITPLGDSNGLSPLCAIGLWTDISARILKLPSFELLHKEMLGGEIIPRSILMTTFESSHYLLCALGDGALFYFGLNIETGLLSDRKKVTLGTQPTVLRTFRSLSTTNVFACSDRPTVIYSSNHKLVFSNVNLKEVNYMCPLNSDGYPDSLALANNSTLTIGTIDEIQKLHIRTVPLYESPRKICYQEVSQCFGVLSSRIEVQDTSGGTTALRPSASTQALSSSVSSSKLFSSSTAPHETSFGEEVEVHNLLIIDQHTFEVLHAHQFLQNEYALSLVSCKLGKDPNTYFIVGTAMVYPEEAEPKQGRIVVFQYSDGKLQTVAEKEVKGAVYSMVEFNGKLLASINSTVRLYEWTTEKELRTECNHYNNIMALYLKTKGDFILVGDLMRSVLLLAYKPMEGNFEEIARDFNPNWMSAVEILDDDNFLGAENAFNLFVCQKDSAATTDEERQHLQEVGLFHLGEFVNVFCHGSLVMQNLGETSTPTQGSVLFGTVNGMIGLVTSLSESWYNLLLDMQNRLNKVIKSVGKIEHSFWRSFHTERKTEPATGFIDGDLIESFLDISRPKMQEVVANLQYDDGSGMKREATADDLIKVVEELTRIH
Outline: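 Percentage degradation of Cyclin D1 and CDK4 derived from densitometry of ECL Western blots on lysates of Calu-1 cells. Treatment was 16 h with compound at either 40 nM or 200 nM.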

Question: Which results are given for `CNc1ccc(C(=O)Nc2ccc(N(C)C)nn2)c(NC2CC(CNC(=O)CN3CCN(c4ccc(Nc5ncc6c(C)c(C(C)=O)c(=O)n(C7CCCC7)c6n5)nc4)CC3)C2)n1` (centres unmarked) [CPD-79, 2-((3-((2-(4-(6-((6-Acetyl-8-cyclopentyl-5-methyl-7-oxo-7,8-dihydropyrido[2,3-d]pyrimidin-2-yl)amino)pyridin-3-yl)piperazin-1-yl)acetamido)methyl)cyclobutyl)amino)-N-(6-(dimethylamino)pyridazin-3-yl)-6-(methylamino)nicotinamide]?
Answer: IC50 (Calu-1 cells): ≤ 10 nM; IC50 (T47D cells): ≤ 50 nM; IC50 (MCF7 cells): < 50 nM; inhibition at 0.04 µM (CDK4): 50 to 80%; inhibition at 0.2 µM (CDK4): 50 to 80%

Question: Which IC50 (Calu-1 cells) does the source give for `CNc1ccc(C(=O)Nc2cc(C)n(C)n2)c(NCCCCCNC(=O)CN2CCN(c3ccc(Nc4ncc5c(C)c(C(C)=O)c(=O)n(C6CCCC6)c5n4)nc3)CC2)n1` [CPD-50, 2-((5-(2-(4-(6-((6-acetyl-8-cyclopentyl-5-methyl-7-oxo-7,8-dihydropyrido[2,3-d]pyrimidin-2-yl)amino)pyridin-3-yl)piperazin-1-yl)acetamido)pentyl)amino)-N-(1,5-dimethyl-1H-pyrazol-3-yl)-6-(methylamino)nicotinamide] here?
Answer: ≤ 10 nM

Question: What about the IC50 (T47D cells) of the same molecule?
Answer: 50 to 100 nM

Question: What about the IC50 (MCF7 cells) of the same molecule?
Answer: < 50 nM

Question: And the inhibition at 0.04 µM (CDK4)?
Answer: 50 to 80%

Question: What about the inhibition at 0.2 µM (CDK4) of the same molecule?
Answer: 50 to 80%

Question: Which results are given for `CNc1ccc(C(=O)Nc2ccc(OC)nn2)c(NCCCCCCCNC(=O)CN2CCN(c3ccc(Nc4ncc5c(C)c(C(C)=O)c(=O)n(C6CCCC6)c5n4)nc3)CC2)n1` [CPD-11, 2-((7-(2-(4-(6-((6-Acetyl-8-cyclopentyl-5-methyl-7-oxo-7,8-dihydropyrido[2,3-d]pyrimidin-2-yl)amino)pyridin-3-yl)piperazin-1-yl)acetamido)heptyl)amino)-N-(6-methoxypyridazin-3-yl)-6-(methylamino)nicotinamide]?
Answer: IC50 (Calu-1 cells): 10 to 50 nM; IC50 (T47D cells): 50 to 100 nM; IC50 (MCF7 cells): < 50 nM; inhibition at 0.04 µM (CDK4): 50 to 80%; inhibition at 0.2 µM (CDK4): > 80%

Question: Which results are given for `CC(=O)c1c(C)c2cnc(Nc3ccc(N4CCN(CC(=O)NCCCCCNc5nc(NC(C)C)ccc5C(=O)Nc5ccc(N(C)C)nn5)CC4)cn3)nc2n(C2CCCC2)c1=O` [CPD-18, 2-((5-(2-(4-(6-((6-Acetyl-8-cyclopentyl-5-methyl-7-oxo-7,8-dihydropyrido[2,3-d]pyrimidin-2-yl)amino)pyridin-3-yl)piperazin-1-yl)acetamido)pentyl)amino)-N-(6-(dimethylamino)pyridazin-3-yl)-6-(isopropylamino)nicotinamide]?
Answer: IC50 (Calu-1 cells): ≤ 10 nM; IC50 (T47D cells): ≤ 50 nM; IC50 (MCF7 cells): < 50 nM; inhibition at 0.04 µM (CDK4): 50 to 80%; inhibition at 0.2 µM (CDK4): 50 to 80%

Question: How did the IC50 (Calu-1 cells) turn out when `CNc1ccc(C(=O)Nc2cccc(C)n2)c(NC2CC3(C2)CN(C(=O)CCN2CCN(c4ccc(Nc5ncc6c(C)c(C(C)=O)c(=O)n(C7CCCC7)c6n5)nc4)CC2)C3)n1` [CPD-155, 2-((2-(3-(4-(6-((6-acetyl-8-cyclopentyl-5-methyl-7-oxo-7,8-dihydropyrido[2,3-d]pyrimidin-2-yl)amino)pyridin-3-yl)piperazin-1-yl)propanoyl)-2-azaspiro[3.3]heptan-6-yl)amino)-6-(methylamino)-N-(6-methylpyridin-2-yl)nicotinamide] was run?
Answer: ≤ 10 nM

Question: What about the IC50 (T47D cells) of the same molecule?
Answer: 50 to 100 nM

Question: What about the IC50 (MCF7 cells) of the same molecule?
Answer: > 100 nM

Question: And the inhibition at 0.04 µM (CDK4)?
Answer: 50 to 80%

Question: And the inhibition at 0.2 µM (CDK4)?
Answer: > 80%

Question: How did the IC50 (Calu-1 cells) turn out when `CC(=O)c1c(C)c2cnc(Nc3ccc(N4CCN(CC(=O)NCCCCCNc5nc(C)ccc5C(=O)Nc5ccc(N(C)C)nn5)CC4)cn3)nc2n(C2CCCC2)c1=O` [CPD-16, 2-((5-(2-(4-(6-((6-Acetyl-8-cyclopentyl-5-methyl-7-oxo-7,8-dihydropyrido[2,3-d]pyrimidin-2-yl)amino)pyridin-3-yl)piperazin-1-yl)acetamido)pentyl)amino)-N-(6-(dimethylamino)pyridazin-3-yl)-6-methylnicotinamide] was run?
Answer: ≤ 10 nM

Question: And the IC50 (T47D cells)?
Answer: ≤ 50 nM

Question: And the IC50 (MCF7 cells)?
Answer: < 50 nM

Question: What about the inhibition at 0.04 µM (CDK4) of the same molecule?
Answer: 50 to 80%

Question: What about the inhibition at 0.2 µM (CDK4) of the same molecule?
Answer: 50 to 80%

Question: `CNc1ccc(C(=O)Nc2ccc3ncn(C)c3n2)c(NCCCCCNC(=O)CN2CCN(c3ccc(Nc4ncc5c(C)c(C(C)=O)c(=O)n(C6CCCC6)c5n4)nc3)CC2)n1` [CPD-38, 2-((5-(2-(4-(6-((6-Acetyl-8-cyclopentyl-5-methyl-7-oxo-7,8-dihydropyrido[2,3-d]pyrimidin-2-yl)amino)pyridin-3-yl)piperazin-1-yl)acetamido)pentyl)amino)-N-(3-methyl-3H-imidazo[4,5-b]pyridin-5-yl)-6-(methylamino)nicotinamide] was tested. Which IC50 (Calu-1 cells) did it give?
Answer: ≤ 10 nM

Question: And the IC50 (T47D cells)?
Answer: 50 to 100 nM

Question: What about the IC50 (MCF7 cells) of the same molecule?
Answer: > 100 nM

Question: What about the inhibition at 0.04 µM (CDK4) of the same molecule?
Answer: 50 to 80%

Question: And the inhibition at 0.2 µM (CDK4)?
Answer: > 80%

Question: For `CNc1ccc(C(=O)Nc2ccc(N(C)C)nn2)c(NC2CC3(C2)CN(C(=O)C2(CN4CCN(c5ccc(Nc6ncc7c(C)c(C(C)=O)c(=O)n(C8CCCC8)c7n6)nc5)CC4)CC2)C3)n1` [CPD-115, 2-((2-(1-((4-(6-((6-Acetyl-8-cyclopentyl-5-methyl-7-oxo-7,8-dihydropyrido[2,3-d]pyrimidin-2-yl)amino)pyridin-3-yl)piperazin-1-yl)methyl)cyclopropane-1-carbonyl)-2-azaspiro[3.3]heptan-6-yl)amino)-N-(6-(dimethylamino)pyridazin-3-yl)-6-(methylamino)nicotinamide], which IC50 (Calu-1 cells) is on record?
Answer: ≤ 10 nM

Question: And the IC50 (T47D cells)?
Answer: ≤ 50 nM

Question: What about the IC50 (MCF7 cells) of the same molecule?
Answer: > 100 nM

Question: And the inhibition at 0.04 µM (CDK4)?
Answer: 50 to 80%

Question: What about the inhibition at 0.2 µM (CDK4) of the same molecule?
Answer: 50 to 80%

Question: Which results are given for `CNc1ccc(C(=O)Nc2ccc(N(C)C)nn2)c(NC2CCC(CCNC(=O)CN3CCN(c4ccc(Nc5ncc6c(C)c(C(C)=O)c(=O)n(C7CCCC7)c6n5)nc4)CC3)C2)n1` (centres unmarked) [CPD-136, 2-((3-(2-(2-(4-(6-((6-Acetyl-8-cyclopentyl-5-methyl-7-oxo-7,8-dihydropyrido[2,3-d]pyrimidin-2-yl)amino)pyridin-3-yl)piperazin-1-yl)acetamido)ethyl)cyclopentyl)amino)-N-(6-(dimethylamino)pyridazin-3-yl)-6-(methylamino)nicotinamide]?
Answer: IC50 (Calu-1 cells): ≤ 10 nM; IC50 (T47D cells): 50 to 100 nM; IC50 (MCF7 cells): > 100 nM; inhibition at 0.04 µM (CDK4): 50 to 80%; inhibition at 0.2 µM (CDK4): 50 to 80%

Question: For `CNc1ccc(C(=O)Nc2ccc(N(C)C)nn2)c(NC2CC3(CC(CNC(=O)N4CCN(c5ccc(Nc6ncc7c(C)c(C(C)=O)c(=O)n(C8CCCC8)c7n6)nc5)CC4)C3)C2)n1` (centres unmarked) [CPD-81, 4-(6-((6-Acetyl-8-cyclopentyl-5-methyl-7-oxo-7,8-dihydropyrido[2,3-d]pyrimidin-2-yl)amino)pyridin-3-yl)-N-((6-((3-((6-(dimethylamino)pyridazin-3-yl)carbamoyl)-6-(methylamino)pyridin-2-yl)amino)spiro[3.3]heptan-2-yl)methyl)piperazine-1-carboxamide], which IC50 (Calu-1 cells) is on record?
Answer: 10 to 50 nM

Question: And the IC50 (T47D cells)?
Answer: 50 to 100 nM

Question: And the inhibition at 0.04 µM (CDK4)?
Answer: 30 to 50%

Question: And the inhibition at 0.2 µM (CDK4)?
Answer: 30 to 50%

Question: Which results are given for `CNc1ccc(C(=O)Nc2ccc(N(C)C)nn2)c(NC(C)CCCCNC(=O)CN2CCN(c3ccc(Nc4ncc5c(C)c(C(C)=O)c(=O)n(C6CCCC6)c5n4)nc3)CC2)n1` (centres unmarked) [CPD-29, 2-((6-(2-(4-(6-((6-Acetyl-8-cyclopentyl-5-methyl-7-oxo-7,8-dihydropyrido[2,3-d]pyrimidin-2-yl)amino)pyridin-3-yl)piperazin-1-yl)acetamido)hexan-2-yl)amino)-N-(6-(dimethylamino)pyridazin-3-yl)-6-(methylamino)nicotinamide]?
Answer: IC50 (Calu-1 cells): 10 to 50 nM; IC50 (T47D cells): 50 to 100 nM; inhibition at 0.04 µM (CDK4): 50 to 80%; inhibition at 0.2 µM (CDK4): > 80%

Question: How did the IC50 (Calu-1 cells) turn out when `CNc1ccc(C(=O)Nc2ccc(N(C)C)nn2)c(NCCCCNC(=O)CCN2CCN(c3ccc(Nc4ncc5c(C)c(C(C)=O)c(=O)n(C6CCCC6)c5n4)nc3)CC2)n1` [CPD-37, 2-((4-(3-(4-(6-((6-acetyl-8-cyclopentyl-5-methyl-7-oxo-7,8-dihydropyrido[2,3-d]pyrimidin-2-yl)amino)pyridin-3-yl)piperazin-1-yl)propanamido)butyl)amino)-N-(6-(dimethylamino)pyridazin-3-yl)-6-(methylamino)nicotinamide] was run?
Answer: 10 to 50 nM

Question: And the IC50 (T47D cells)?
Answer: ≥ 100 nM

Question: And the inhibition at 0.04 µM (CDK4)?
Answer: 50 to 80%

Question: What about the inhibition at 0.2 µM (CDK4) of the same molecule?
Answer: 50 to 80%

Question: For `CNc1ccc(C(=O)Nc2ccc(C)c(C3CC3)n2)c(NC2CC3(CC(NC(=O)CN4CCN(c5ccc(Nc6ncc7c(C)c(C(C)=O)c(=O)n(C8CCCC8)c7n6)nc5)CC4)C3)C2)n1` (centres unmarked) [CPD-57, 2-((6-(2-(4-(6-((6-Acetyl-8-cyclopentyl-5-methyl-7-oxo-7,8-dihydropyrido[2,3-d]pyrimidin-2-yl)amino)pyridin-3-yl)piperazin-1-yl)acetamido)spiro[3.3]heptan-2-yl)amino)-N-(6-cyclopropyl-5-methylpyridin-2-yl)-6-(methylamino)nicotinamide], which IC50 (Calu-1 cells) is on record?
Answer: 10 to 50 nM

Question: What about the IC50 (T47D cells) of the same molecule?
Answer: 50 to 100 nM

Question: And the inhibition at 0.04 µM (CDK4)?
Answer: 30 to 50%

Question: And the inhibition at 0.2 µM (CDK4)?
Answer: > 80%

Question: What does the source list for `CNc1ccc(C(=O)Nc2ccc(N(C)C)nn2)c(NC2CC(CNC(=O)CCN3CCN(c4ccc(Nc5ncc6c(C)c(C(C)=O)c(=O)n(C7CCCC7)c6n5)nc4)CC3)C2)n1` (centres unmarked) [CPD-80, 2-((3-((3-(4-(6-((6-Acetyl-8-cyclopentyl-5-methyl-7-oxo-7,8-dihydropyrido[2,3-d]pyrimidin-2-yl)amino)pyridin-3-yl)piperazin-1-yl)propanamido)methyl)cyclobutyl)amino)-N-(6-(dimethylamino)pyridazin-3-yl)-6-(methylamino)nicotinamide]?
Answer: IC50 (Calu-1 cells): ≤ 10 nM; IC50 (T47D cells): ≤ 50 nM; inhibition at 0.04 µM (CDK4): 50 to 80%; inhibition at 0.2 µM (CDK4): 50 to 80%
